Source: patent US6693115B2, “Acid addition salts of hydropyridine derivatives” (Sankyo Company, Limited, priority 2000, dated 2004)

Columns and labels:
[1] = tested on: ADP-induced platelet aggregation; test: Inhibitory effect on platelet aggregation (fasting), ex vivo PRP after oral administration; format: in vivo, male beagle dogs; conditions: Table 4, fasted dogs, oral 1.0 mg/kg, ADP 20 μM, mean ± standard deviation; for Inhibition (%) of platelet aggregation 2 hours: 2 hours after administration; for Inhibition (%) of platelet aggregation 4 hours: 4 hours after administration
Procedure: Inhibitory Effect on Platelet Aggregation (Fasting)
For this test, male beagle dogs (about 10 kg in body weight, purchased from Kasho Co., Ltd. and Nippon Nosan Kogyo K.K.) were used. One group consisted of 3 dogs. The platelet aggregation was measured using an automated platelet aggregometer (“PAM-6C”, trade name; a product of Mebanix Corporation) in accordance with the method of Born, et al. (J. Physiol., 168, 178(1963)) with a partial modification.
From the cephalic vein of each dog fasted overnight, 5.4 ml of the blood was collected using sodium citrate (0.6 ml, 3.8% (w/v)) as an anticoagulant. The resulting citrate-added blood was centrifuged (240 g, 20 minutes) to separate platelet-rich plasma (hereinafter referred to as “PRP”) and platelet-poor plasma (hereinafter referred to as “PPP”). After the number of platelets in PRP was counted by an automatic hematology analyzer (“K-1000”, trade name; a product of Sysmex Corporation), PPP was added to adjust the number of platelets to 3×10^8/ml. PRP (240 μl) dispensed in a cuvette was set on the automatic platelet aggregometer. After preheating (at 37° C.) for 1 minute, 10 μl of ADP (final concentration: 20 μM) was added to cause platelet aggregation. For 10 minutes, platelet aggregation was measured and the maximum aggregation was determined to give the pre-administration value.
(§1) On the next day, each test compound filled in a gelatin capsule was orally administered to the dogs. The blood was collected each of 2 and 4 hours after administration. The platelet aggregation of PRP was measured, whereby the maximum aggregation was determined. The inhibition (%) of platelet aggregation by the test compound was calculated by comparing it with the pre-administration value.
In this table, the term “maleate” means 2-acetoxy-5-(α-cyclopropylcarbonyl-2-fluorobenzyl)-4,5,6,7-tetrahydrothieno[3,2-c]pyridine maleate obtained in Example 2, while the term “free form” means 2-acetoxy-5-(α-cyclopropylcarbonyl-2-fluorobenzyl)-4,5,6,7-tetrahydrothieno[3,2-c]pyridine.

[2] = tested on: ADP-induced platelet aggregation; test: Inhibitory effect on platelet aggregation (feeding), ex vivo PRP after oral administration; format: in vivo, male beagle dogs; conditions: fed dogs, oral 0.3 mg/kg, ADP 20 μM, mean ± standard deviation; for Inhibition (%) of platelet aggregation 2 hours: 2 hours after administration; for Inhibition (%) of platelet aggregation 4 hours: 4 hours after administration
Procedure: Inhibitory Effect on Platelet Aggregation (Feeding)
For this test, male beagle dogs (about 10 kg in body weight, purchased from Kasho Co., Ltd. and Nippon Nosan Kogyo K.K.) were used. One group consisted of 5 or 6 dogs. The platelet aggregation was measured using an automatic platelet aggregometer (“PAM-6C”, trade name; a product of Mebanix Corporation) in accordance with the method of Born, et al. (J. Physiol., 168, 178 (1963)) with a partial modification.
Each of 2.5 hours and 4.5 hours after feeding, 5.4 ml of blood was collected from the cephalic vein of each dog using sodium citrate (0.6 ml, 3.8% (w/v)) as an anticoagulant. The citrate-added blood was centrifuged (240 g, 20 minutes) to separate platelet-rich plasma (hereinafter referred to as “PRP”) and platelet-poor plasma (hereinafter referred to as “PPP”). After the number of platelets in PRP was counted by an automatic hematology analyzer (“K-1000”, trade name; a product of Sysmex Corporation), PPP was added to adjust the number of platelets to 3×10^8/ml. PRP (240 μl) dispensed in a cuvette was set on the automatic platelet aggregometer. After preheating (at 37° C.) for 1 minute, 10 μl of ADP (final concentration: 20 μM) was added to cause platelet aggregation. For 10 minutes, platelet aggregation was measured and the maximum aggregation was determined to give the pre-administration value.
as §1, with “day, 30 minutes after feeding,” for “day,”, “after the” for “after”
In these tables, the term “hydrochloride” means 2-acetoxy-5-(α-cyclopropylcarbonyl-2-fluorobenzyl)-4,5,6-7-tetrahydrothieno[3,2-c]pyridine hydrochloride obtained in Example 1, “free form” means 2-acetoxy-5-(α-cyclopropylcarbonyl-2-fluorobenzyl)-4,5,6,7-tetrahydrothieno[3,2-c]pyridine, and “maleate” means 2-acetoxy-5-(α-cyclopropylcarbonyl-2-fluorobenzyl)-4,5,6,7-tetrahydrothieno[3,2-c]pyridine maleate obtained in Example 2.

[3] = Storage stability of crystal forms; format: physicochemical; conditions: comparison between hydrochloride crystal forms

Compound	Inhibition (%) of platelet aggregation 2 hours [1] [%]	Inhibition (%) of platelet aggregation 4 hours [1] [%]	Inhibition (%) of platelet aggregation 2 hours ([2]; Table 3) [%]	Inhibition (%) of platelet aggregation 4 hours ([2]; Table 3) [%]	storage stability [3]	Inhibition (%) of platelet aggregation 2 hours ([2]; Table 2) [%]	Inhibition (%) of platelet aggregation 4 hours ([2]; Table 2) [%]
CC(=O)Oc1cc2c(s1)CCN(C(C(=O)C1CC1)c1ccccc1F)C2.O=C(O)/C=C\C(=O)O (stereo not drawn) [Maleate, 2-Acetoxy-5-(α-cyclopropylcarbonyl-2-fluorobenzyl)-4,5,6,7-tetrahydrothieno[3,2-c]pyridine maleate]	63.4 ± 22.9	88.5 ± 5.7	50.9 ± 14.5	58.6 ± 15.7	–	–	–
CC(=O)Oc1cc2c(s1)CCN(C(C(=O)C1CC1)c1ccccc1F)C2.Cl (stereo not drawn) [crystal B1, 2-Acetoxy-5-(α-cyclopropylcarbonyl-2-fluorobenzyl)-4,5,6,7-tetrahydrothieno[3,2-c]pyridine Hydrochloride (Crystal B1)]	–	–	–	–	more excellent storage stability than crystal A	–	–
CC(=O)Oc1cc2c(s1)CCN(C(C(=O)C1CC1)c1ccccc1F)C2 (stereo not drawn) [Free form, 2-Acetoxy-5-(α-cyclopropylcarbonyl-2-fluorobenzyl)-4,5,6,7-tetrahydrothieno[3,2-c]pyridine, reference compound]	27.9 ± 24.8	28.7 ± 24.4	21.7 ± 9.8	23.8 ± 12.6	–	25.8 ± 10.9	28.6 ± 14.2
CC(=O)Oc1cc2c(s1)CCN(C(C(=O)C1CC1)c1ccccc1F)C2.Cl (stereo not drawn) [Hydrochloride, 2-Acetoxy-5-(α-cyclopropylcarbonyl-2-fluorobenzyl)-4,5,6,7-tetrahydrothieno[3,2-c]pyridine hydrochloride (crystal A)]	–	–	–	–	–	49.0 ± 18.7	48.5 ± 18.3
CC(=O)Oc1cc2c(s1)CCN(C(C(=O)C1CC1)c1ccccc1F)C2.Cl (stereo not drawn) [crystal B2, 2-Acetoxy-5-(α-cyclopropylcarbonyl-2-fluorobenzyl)-4,5,6,7-tetrahydrothieno[3,2-c]pyridine hydrochloride (crystal B2)]	–	–	–	–	more excellent storage stability than crystal B1	–	–
